Experiments:
[1] = cited from earlier work
[2] = Real-time measurement of CCl4 in combined exhaled breath of rats after a single intravenous injection (TAGA tandem mass spectrometer); assay type: in vivo, male Fischer 344 rat
From the text: Male, Fischer 344 rats, weighing 225-275 g, were purchased either with, or without, indwelling jugular vein cannulas from Charles River, Inc., Raleigh, N.C. Animals were housed singularly in solid-bottom cages with hardwood chips, and were acclimated on a 12-hr light/dark cycle prior to use. Rodent chow (NIH-07) and water were provided ad libitum throughout the acclimation period. Cannulas were maintained by periodic flushing with heparinized saline.
In three different experiments, either two or four animals were placed in nose-only restraint tubes (C. H. Technologies, Westwood, N.J.) with access slots that allow the cannulas to be exteriorized from the animal. Each animal restrainer was connected via a nose port to the rat manifold. The exhaled breath from the rat exited the nose port and was driven into a common mixing chamber by a continuous flow of supplied breathing air. Samples for analysis by the mass spectrometer were continually drawn from the contents of the mixing chamber. Rats placed in restraint tubes are connected to the manifold. The exhaled breath from each animal is passed into a common heated mixing chamber, where the mass spectrometer draws a sample via a drying tube.
Each animal received a single intravenous injection of CCl4 in isotonic saline, either through the Jugular vein cannula, or via the tail vein. In the first experiment, two animals were utilized, each receiving a dose of 0.6 mg/kg body weight (BW) (250 μl volume) through the jugular vein cannula. Cannulas were flushed with saline immediately following injection. The second and third experiments utilized 4 animals each, with each animal receiving a dose of 1.5 mg/kg BW (1 ml volume) through the tail vein. In all cases, the length of time of injection was approximately 1 minute. The combined exhaled breath from the exposed animals was measured continuously to determine the concentration of CCl4 exhaled. The resulting concentration data were adjusted to account for dilution by the flow of supplied breathing air and divided by the number of rats to allow expression as ng CCl4 /l air per rat.
The expired breath from the rats was monitored by interfacing the rats to a tandem mass spectrometer. The manifold was a modification of a human breath interface patented by Kenny and Kelly (1991) U.S. Pat. No. 5,042,501 herein incorporated by reference. This device can accommodate up to six rats connected by the nose-only restraint tubes mentioned above. Breathing air (1000 ml/min) is constantly supplied to the rats through the center tube (175 ml volume) of the manifold at a rate greater than the combined ventilation rate of the animals on the system, and can be adjusted for the number of rats being monitored. Re-breathing of the exhaled air was considered to be negligible. The exhaled breath from each rat flows into a common heated mixing chamber (300 ml volume) from which the mass spectrometer continuously draws its sample. The excess exhaled air is vented from the mixing chamber with negligible flow restriction via a large bore hole exit tube. Intensity data from the mass spectrometer was converted to concentration (ppb) through the use of external standards and a calibration curve for carbon tetrachloride. A new calibration curve was generated each day of experimentation.
During these experiments, the expired breath of the rats was monitored in real-time using a Sciex Trace Atmospheric Gas Analyzer (TAGA) 6000E tandem mass spectrometer (Sciex, Thornhill, Ontario, Canada) equipped with a low-pressure chemical ionization source (LPCI). The TAGA combines sampling and analysis into one rapid operation, while maintaining a very high level of sensitivity and selectivity (Dawson et al. 1982a; 1982b). The TAGA consists of a LPCI source and two mass filters in series, separated by a gas-collision region. Organic molecules in the sampled air stream are ionized directly at approximately 1 torr by the chemical reactions generated about a Townsend discharge electrode. […]

[3] = Paustenbach et al., 1988, cited from earlier work
[4] = 0.6 mg/kg BW, jugular vein cannula, two rats, FIG. 3a

## ClC(Cl)(Cl)Cl [CCl4, carbon tetrachloride]
[1]; Gargas et al., 1986b
  Partition coefficient Blood: Air: 4.52
  Partition coefficient Liver: Blood: 3.14
  Partition coefficient Slowly perfused: Blood: 2.0
[1]; Set equivalent to partition coefficient for liver: blood
  Partition coefficient Richly perfused: Blood: 3.14
[2]; [4]
  first pass elimination through the lung: extremely rapid
  levels available for subsequent distribution into the entire blood volume: very low levels
[2]; 1.5 mg/kg BW, tail vein, four rats, FIG. 3b, compared with jugular vein
  fraction of CCl4 held up in the circulating blood supply: larger fraction
[2]; 1.5 mg/kg BW, tail vein, four rats, FIG. 3b, repeat gave same pattern
  elimination through the lung (exhalation profile): initial sharp peak
[2]; FIGS. 3a and 3b, single i.v. injection
  time for which the decay of the CCl4 can be followed after the injection before returning to baseline: 30 to 35 min
[2]; rat, exhaled breath, iv, single i.v. injection, 0.6 mg/kg jugular vein or 1.5 mg/kg tail vein, consistent with calculated sample-introduction delay (28.5 seconds), read-out: peak concentration of CCl4 in exhaled breath occurred in (time from the end of the injection) (converted)
  Tmax: ~30 s
[2]; single i.v. injection of CCl4
  acetone in exhaled breath (biomarker of CCl4-induced lipid peroxidation): not detectable
[3]; body weight 250 g
  Vmaxc (Metabolism): 13.8 μg CCl4 /min per kg
[3]
  Km (Metabolism): 0.25 µg/mL

Source: patent US5645072A, “Real time chemical exposure and risk monitor” (priority 1995, dated 1997)
